Key:
KRASwt = target: T1, KRASwt (Homo sapiens, UniProt P01116); assay: Bio-Biochem-PPI-HTRF Ras-SOS1 interaction assay (KRAS wt); type: biochemical; conditions: 5 nM
T1 construct: made in house; host or cells: E. coli BL21 (DE3)
How it was run: (§1)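 Compounds tested in duplicate (10 μM to 0.01 μM) for disruption of His-hSOS1 binding to GST-tagged wild-type or G12D K-Ras in HEPES pH 7.4 buffer. TR-FRET read (Eu donor, XL665 acceptor) after about 10 min or longer; IC50 derived from the 665/620 nm emission ratio.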

KRASG12D = target: T2, KRASG12D (Homo sapiens, UniProt P01116, G12D); assay: Bio-Biochem-PPI-HTRF Ras-SOS1 interaction assay (KRAS G12D); type: biochemical; conditions: 5 nM
T2 construct: made in house; host or cells: E. coli BL21 (DE3)
How it was run: as §1

T1 sequence (P01116 1-188 isoform P01116-2): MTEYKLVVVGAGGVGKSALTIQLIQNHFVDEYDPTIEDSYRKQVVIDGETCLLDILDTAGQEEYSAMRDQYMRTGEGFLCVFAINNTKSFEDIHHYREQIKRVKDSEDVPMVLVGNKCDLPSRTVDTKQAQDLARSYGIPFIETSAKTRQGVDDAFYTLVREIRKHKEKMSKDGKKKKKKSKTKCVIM
T2 sequence (P01116 1-188 isoform P01116-2 G12D): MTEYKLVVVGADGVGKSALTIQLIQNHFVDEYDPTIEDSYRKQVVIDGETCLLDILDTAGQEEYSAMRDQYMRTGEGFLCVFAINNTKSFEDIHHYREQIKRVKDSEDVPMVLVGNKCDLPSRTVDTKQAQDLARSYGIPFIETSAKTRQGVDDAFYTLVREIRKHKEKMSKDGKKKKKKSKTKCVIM

IC50 (KRASwt) [µM]	IC50 (KRASG12D) [µM]	Compound
< 5	< 5	CC1(C)CN(c2nc(OC[C@@]34CCCN3C[C@H](F)C4)nc3c(F)c(-c4ccc(F)c5sc(N)c(C#N)c45)c(Cl)cc23)CC2(CNC2)O1 [compound 101, 2-amino-4-(6-chloro-4-(6,6-dimethyl-5-oxa-2,8-diazaspiro[3.5]nonan-8-yl)-8-fluoro-2-(((2R,7aS)-2-fluorotetrahydro-1H-pyrrolizin-7a(5H)-yl)methoxy)quinazolin-7-yl)-7-fluorobenzo[b]thiophene-3-carbonitrile]
< 5	< 5	CC(C)(C(=O)N1CC2(CCCCN(c3nc(OC[C@@]45CCCN4C[C@H](F)C5)nc4c(F)c(-c5ccc(F)c6sc(N)c(C#N)c56)c(Cl)cc34)C2)C1)N1CCOCC1 [compound 266, 2-amino-4-(6-chloro-8-fluoro-2-(((2R,7aS)-2-fluorotetrahydro-1H-pyrrolizin-7a(5H)-yl)methoxy)-4-(2-(2-methyl-2-morpholinopropanoyl)-2,6-diazaspiro[3.6]decan-6-yl)quinazolin-7-yl)-7-fluorobenzo[b]thiophene-3-carbonitrile]
≥ 5	≥ 5	CN1CCC[C@H]1COc1nc2c(c(N3CCCCC4(CN(C(=O)C5CC5(F)F)C4)C3)n1)CCN(c1cccc3cccc(Cl)c13)C2 (stereo partly drawn) [compound 236, (6-(7-(8-chloronaphthalen-1-yl)-2-(((S)-1-methylpyrrolidin-2-yl)methoxy)-5,6,7,8-tetrahydropyrido[3,4-d]pyrimidin-4-yl)-2,6-diazaspiro[3.6]decan-2-yl)(2,2-difluorocyclopropyl)methanone]
< 5	< 5	N#Cc1c(N)sc2c(F)ccc(-c3c(Cl)cc4c(N5CCCC6(CN(C(=O)C(F)Cl)C6)C5)nc(OC[C@@]56CCCN5C[C@H](F)C6)nc4c3F)c12 (stereo partly drawn) [compound 184, 2-amino-4-(6-chloro-4-(2-(2-chloro-2-fluoroacetyl)-2,6-diazaspiro[3.5]nonan-6-yl)-8-fluoro-2-(((2R,7aS)-2-fluorotetrahydro-1H-pyrrolizin-7a(5H)-yl)methoxy)quinazolin-7-yl)-7-fluorobenzo[b]thiophene-3-carbonitrile]
< 5	< 5	N#Cc1c(N)sc2c(F)ccc(-c3c(Cl)cc4c(N5CCCCC6(CN(C(=O)C[C@H]7CCOC7)C6)C5)nc(OC[C@@]56CCCN5C[C@H](F)C6)nc4c3F)c12 [compound 304, 2-amino-4-(6-chloro-8-fluoro-2-(((2R,7aS)-2-fluorotetrahydro-1H-pyrrolizin-7a(5H)-yl)methoxy)-4-(2-(2-((R)-tetrahydrofuran-3-yl)acetyl)-2,6-diazaspiro[3.6]decan-6-yl)quinazolin-7-yl)-7-fluorobenzo[b]thiophene-3-carbonitrile]
< 5	< 5	N#Cc1c(N)sc2c(F)ccc(-c3c(Cl)cc4c(N5CCOC6(CN(C(=O)N7CC(C#N)C7)C6)C5)nc(OC[C@@]56CCCN5C[C@H](F)C6)nc4c3F)c12 [compound 257, 1-(8-(7-(2-amino-3-cyano-7-fluorobenzo[b]thiophen-4-yl)-6-chloro-8-fluoro-2-(((2R,7aS)-2-fluorotetrahydro-1H-pyrrolizin-7a(5H)-yl)methoxy)quinazolin-4-yl)-5-oxa-2,8-diazaspiro[3.5]nonane-2-carbonyl)azetidine-3-carbonitrile]
< 5	< 5	N#Cc1c(N)sc2c(F)ccc(-c3c(Cl)cc4c(N5CCC(C(F)F)CC6(CN(C(=O)[C@@H]7CC7(F)F)C6)C5)nc(OC[C@@]56CCCN5C[C@H](F)C6)nc4c3F)c12 (stereo partly drawn) [compound 254, 2-amino-4-(6-chloro-4-(2-((S)-2,2-difluorocyclopropane-1-carbonyl)-9-(difluoromethyl)-2,6-diazaspiro[3.6]decan-6-yl)-8-fluoro-2-(((2R,7aS)-2-fluorotetrahydro-1H-pyrrolizin-7a(5H)-yl)methoxy)quinazolin-7-yl)-7-fluorobenzo[b]thiophene-3-carbonitrile]
< 5	< 5	N#Cc1c(N)sc2c(F)ccc(-c3c(Cl)cc4c(N5CCCCC6(CN(C(=O)C7COC7)C6)C5)nc(OC[C@@]56CCCN5C[C@H](F)C6)nc4c3F)c12 [compound 293, 2-amino-4-(6-chloro-8-fluoro-2-(((2R,7aS)-2-fluorotetrahydro-1H-pyrrolizin-7a(5H)-yl)methoxy)-4-(2-(oxetane-3-carbonyl)-2,6-diazaspiro[3.6]decan-6-yl)quinazolin-7-yl)-7-fluorobenzo[b]thiophene-3-carbonitrile]
< 5	< 5	C#Cc1c(F)ccc2cc(O)cc(-c3ncc4c(N5CCCC6(CN(C(=O)[C@@H]7C[C@H]7C#N)C6)C5)nc(O[C@@H](C)[C@@H]5CCCN5C)nc4c3F)c12 [compound 113, (1R,2R)-2-(6-(7-(8-ethynyl-7-fluoro-3-hydroxynaphthalen-1-yl)-8-fluoro-2-((S)-1-((S)-1-methylpyrrolidin-2-yl)ethoxy)pyrido[4,3-d]pyrimidin-4-yl)-2,6-diazaspiro[3.5]nonane-2-carbonyl)cyclopropane-1-carbonitrile]
< 5	< 5	COc1cc(C(=O)N2CC3(CCCCN(c4nc(OC[C@@]56CCCN5C[C@H](F)C6)nc5c(F)c(-c6ccc(F)c7sc(N)c(C#N)c67)c(Cl)cc45)C3)C2)n(C)n1 [compound 258, 2-amino-4-(6-chloro-8-fluoro-2-(((2R,7aS)-2-fluorotetrahydro-1H-pyrrolizin-7a(5H)-yl)methoxy)-4-(2-(3-methoxy-1-methyl-1H-pyrazole-5-carbonyl)-2,6-diazaspiro[3.6]decan-6-yl)quinazolin-7-yl)-7-fluorobenzo[b]thiophene-3-carbonitrile]
< 5	< 5	N#Cc1c(N)sc2c(F)ccc(-c3c(Cl)cc4c(N5CCCCC6(CN(C(=O)C7CC7(F)Cl)C6)C5)nc(OC[C@@]56CCCN5C[C@H](F)C6)nc4c3F)c12 (stereo partly drawn) [compound 336, 2-amino-4-(6-chloro-4-(2-(2-chloro-2-fluorocyclopropane-1-carbonyl)-2,6-diazaspiro[3.6]decan-6-yl)-8-fluoro-2-(((2R,7aS)-2-fluorotetrahydro-1H-pyrrolizin-7a(5H)-yl)methoxy)quinazolin-7-yl)-7-fluorobenzo[b]thiophene-3-carbonitrile]
< 5	< 5	C#Cc1c(F)ccc2cc(O)cc(-c3ncc4c(N5CCCCC6(CN(C(=O)[C@@H]7CC7(F)F)C6)C5)nc(OC[C@@]56CCCN5C[C@H](F)C6)nc4c3F)c12 [compound 334, ((S)-2,2-difluorocyclopropyl) (6-(7-(8-ethynyl-7-fluoro-3-hydroxynaphthalen-1-yl)-8-fluoro-2-(((2R,7aS)-2-fluorotetrahydro-1H-pyrrolizin-7a(5H)-yl)methoxy)pyrido[4,3-d]pyrimidin-4-yl)-2,6-diazaspiro[3.6]decan-2-yl)methanone]
< 5	< 5	Nc1nc2c(-c3c(Cl)cc4c(N5CCOC6(CCNC6)C5)nc(OCC56CCCN5C[C@H](F)C6)nc4c3F)ccc(F)c2s1 (stereo partly drawn) [compound 150, 4-(6-chloro-8-fluoro-2-(((2R)-2-fluorotetrahydro-1H-pyrrolizin-7a(5H)-yl)methoxy)-4-(6-oxa-2,9-diazaspiro[4.5]decan-9-yl)quinazolin-7-yl)-7-fluorobenzo[d]thiazol-2-amine]
< 5	< 5	NC(=O)N1CC2(CCN(c3nc(OC[C@@]45CCCN4C[C@H](F)C5)nc4c(F)c(-c5ccc(F)c6sc(N)nc56)c(Cl)cc34)CC2)C1 [compound 157, 7-(7-(2-amino-7-fluorobenzo [d]thiazol-4-yl)-6-chloro-8-fluoro-2-(((2R,7aS)-2-fluorotetrahydro-1H-pyrrolizin-7a(5H)-yl)methoxy)quinazolin-4-yl)-2,7-diazaspiro[3.5]nonane-2-carboxamide]
< 5	< 5	N#Cc1c(N)sc2c(F)ccc(-c3c(Cl)cc4c(N5CCCCC6(CN(C(=O)N7CC(C(F)F)C7)C6)C5)nc(OC[C@@]56CCCN5C[C@H](F)C6)nc4c3F)c12 [compound 196, 2-amino-4-(6-chloro-4-(2-(3-(difluoromethyl)azetidine-1-carbonyl)-2,6-diazaspiro[3.6]decan-6-yl)-8-fluoro-2-(((2R,7aS)-2-fluorotetrahydro-1H-pyrrolizin-7a(5H)-yl)methoxy)quinazolin-7-yl)-7-fluorobenzo[b]thiophene-3-carbonitrile]
< 5	< 5	CCN(C(=O)N1CC2(C1)CN(c1nc(OC[C@@]34CCCN3C[C@H](F)C4)nc3c(F)c(-c4ccc(F)c5sc(N)c(C#N)c45)c(Cl)cc13)CC(F)(F)O2)C(C)C [compound 153, 8-(7-(2-amino-3-cyano-7-fluorobenzo[b]thiophen-4-yl)-6-chloro-8-fluoro-2-(((2R,7aS)-2-fluorotetrahydro-1H-pyrrolizin-7a(5H)-yl)methoxy)quinazolin-4-yl)-N-ethyl-6,6-difluoro-N-isopropyl-5-oxa-2,8-diazaspiro[3.5]nonane-2-carboxamide]
< 5	< 5	CN(C)C/C=C/C(=O)N1CC2(CCCCN(c3nc(OC[C@@]45CCCN4C[C@H](F)C5)nc4c(F)c(-c5ccc(F)c6sc(N)c(C#N)c56)c(Cl)cc34)C2)C1 [compound 188, 2-amino-4-(6-chloro-4-(2-((E)-4-(dimethylamino)but-2-enoyl)-2,6-diazaspiro[3.6]decan-6-yl)-8-fluoro-2-(((2R,7aS)-2-fluorotetrahydro-1H-pyrrolizin-7a(5H)-yl)methoxy)quinazolin-7-yl)-7-fluorobenzo[b]thiophene-3-carbonitrile]

Reference: patent US20240109918A1, “HETEROCYCLIC COMPOUNDS AND USES THEREOF” (Kumquat Biosciences Inc., priority 2022, published 2024)
